From the supplement of paper PMC10307832

How the values were obtained:
Assay in all cases: relative viability (nuclei count vs DMSO), 5 days (fraction); higher = more cells survive
HCC-44 = test system: HCC-44
How it was run: (§1)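 Nuclei were stained with Hoechst during a one-step fixation (final 0.05% Triton X-100, 1% formaldehyde, 1 ug/ml Hoechst) carried out 5 days after dosing, then counted on 4× images. The cells, lung cancer lines in 1536-well plates, had been dosed by pin tool the day after seeding with one drug alone or a fixed anchor-drug dose plus five library-drug doses (not always all listed) in √10 steps. Relative viability is the nuclei count in treated wells divided by that in vehicle wells, and each value is the median of duplicate plates.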

NCI-H1650 = test system: NCI-H1650
How it was run: as §1

BEN = test system: BEN
How it was run: as §1

NCI-H1355 = test system: NCI-H1355
How it was run: as §1

NCI-H520 = test system: NCI-H520
How it was run: as §1

SW 1573 = test system: SW 1573
How it was run: as §1

201T = test system: 201T
How it was run: as §1

NCI-H2228 = test system: NCI-H2228
How it was run: as §1

NCI-H838 = test system: NCI-H838
How it was run: as §1

NCI-H1666 = test system: NCI-H1666
How it was run: as §1

ABC-1 = test system: ABC-1
How it was run: as §1

NCI-H727 = test system: NCI-H727
How it was run: as §1

HCC-366 = test system: HCC-366
How it was run: as §1

NCI-H1734 = test system: NCI-H1734
How it was run: as §1

NCI-H358 = test system: NCI-H358
How it was run: as §1

LOU-NH91 = test system: LOU-NH91
How it was run: as §1

NCI-H2009 = test system: NCI-H2009
How it was run: as §1

LK-2 = test system: LK-2
How it was run: as §1

NCI-H2347 = test system: NCI-H2347
How it was run: as §1

NCI-H1755 = test system: NCI-H1755
How it was run: as §1

NCI-H2405 = test system: NCI-H2405
How it was run: as §1

UMC-11 = test system: UMC-11
How it was run: as §1

HCC-78 = test system: HCC-78
How it was run: as §1

O=c1[nH]c2ccccc2n1C1CCN(CCCC(c2ccc(F)cc2)c2ccc(F)cc2)CC1 [Pimozide] + CS(=O)(=O)CCNCc1ccc(-c2ccc3ncnc(Nc4ccc(OCc5cccc(F)c5)c(Cl)c4)c3c2)o1 [Lapatinib] (partner 2 µM)
relative viability (HCC-44; first compound 0.08 µM): 0.952
relative viability (HCC-44; first compound 0.253 µM): 1.08
relative viability (HCC-44; first compound 0.8 µM): 0.975
relative viability (HCC-44; first compound 2.53 µM): 0.96
relative viability (HCC-44; first compound 8 µM): 0.888
relative viability (NCI-H1650; first compound 0.08 µM): 0.711
relative viability (NCI-H1650; first compound 0.253 µM): 0.809
relative viability (NCI-H1650; first compound 0.8 µM): 0.451
relative viability (NCI-H1650; first compound 2.53 µM): 0.733
relative viability (NCI-H1650; first compound 8 µM): 0.146
relative viability (BEN; first compound 0.08 µM): 0.615
relative viability (BEN; first compound 0.253 µM): 0.854
relative viability (BEN; first compound 0.8 µM): 0.73
relative viability (BEN; first compound 2.53 µM): 0.669
relative viability (BEN; first compound 8 µM): 0.728
relative viability (NCI-H1355; first compound 0.08 µM): 1.02
relative viability (NCI-H1355; first compound 0.253 µM): 1.09
relative viability (NCI-H1355; first compound 0.8 µM): 0.933
relative viability (NCI-H1355; first compound 2.53 µM): 0.939
relative viability (NCI-H1355; first compound 8 µM): 0.982
relative viability (NCI-H520; first compound 0.08 µM): 0.863
relative viability (NCI-H520; first compound 0.253 µM): 0.922
relative viability (NCI-H520; first compound 0.8 µM): 0.621
relative viability (NCI-H520; first compound 2.53 µM): 0.821
relative viability (NCI-H520; first compound 8 µM): 0.776
relative viability (SW 1573; first compound 0.08 µM): 1.11
relative viability (SW 1573; first compound 0.253 µM): 1.12
relative viability (SW 1573; first compound 0.8 µM): 1.12
relative viability (SW 1573; first compound 2.53 µM): 1.16
relative viability (SW 1573; first compound 8 µM): 1.11
relative viability (201T; first compound 0.08 µM): 1.01
relative viability (201T; first compound 0.253 µM): 1.05
relative viability (201T; first compound 0.8 µM): 1.01
relative viability (201T; first compound 2.53 µM): 0.995
relative viability (201T; first compound 8 µM): 0.926
relative viability (NCI-H2228; first compound 0.08 µM): 1.18
relative viability (NCI-H2228; first compound 0.253 µM): 1.2
relative viability (NCI-H2228; first compound 0.8 µM): 0.924
relative viability (NCI-H2228; first compound 2.53 µM): 0.924
relative viability (NCI-H2228; first compound 8 µM): 0.669
relative viability (NCI-H838; first compound 0.08 µM): 1.18
relative viability (NCI-H838; first compound 0.253 µM): 1.07
relative viability (NCI-H838; first compound 0.8 µM): 0.954
relative viability (NCI-H838; first compound 2.53 µM): 0.822
relative viability (NCI-H838; first compound 8 µM): 0.829
relative viability (NCI-H1666; first compound 0.08 µM): 0.592
relative viability (NCI-H1666; first compound 0.253 µM): 0.716
relative viability (NCI-H1666; first compound 0.8 µM): 0.621
relative viability (NCI-H1666; first compound 2.53 µM): 0.365
relative viability (NCI-H1666; first compound 8 µM): 0.464
relative viability (ABC-1; first compound 0.08 µM): 1.18
relative viability (ABC-1; first compound 0.253 µM): 0.951
relative viability (ABC-1; first compound 0.8 µM): 1.13
relative viability (ABC-1; first compound 2.53 µM): 1.16
relative viability (ABC-1; first compound 8 µM): 1.22
relative viability (NCI-H727; first compound 0.08 µM): 0.8
relative viability (NCI-H727; first compound 0.253 µM): 0.922
relative viability (NCI-H727; first compound 0.8 µM): 0.85
relative viability (NCI-H727; first compound 2.53 µM): 0.754
relative viability (NCI-H727; first compound 8 µM): 0.769
relative viability (HCC-366; first compound 0.08 µM): 0.971
relative viability (HCC-366; first compound 0.253 µM): 1.02
relative viability (HCC-366; first compound 0.8 µM): 0.988
relative viability (HCC-366; first compound 2.53 µM): 1.01
relative viability (HCC-366; first compound 8 µM): 1.06
relative viability (NCI-H1734; first compound 0.08 µM): 1.04
relative viability (NCI-H1734; first compound 0.253 µM): 1.07
relative viability (NCI-H1734; first compound 0.8 µM): 0.978
relative viability (NCI-H1734; first compound 2.53 µM): 0.96
relative viability (NCI-H1734; first compound 8 µM): 0.671
relative viability (NCI-H358; first compound 0.08 µM): 0.506
relative viability (NCI-H358; first compound 0.253 µM): 0.488
relative viability (NCI-H358; first compound 0.8 µM): 0.433
relative viability (NCI-H358; first compound 2.53 µM): 0.477
relative viability (NCI-H358; first compound 8 µM): 0.4
relative viability (LOU-NH91; first compound 0.08 µM): 0.736
relative viability (LOU-NH91; first compound 0.253 µM): 0.694
relative viability (LOU-NH91; first compound 0.8 µM): 0.751
relative viability (LOU-NH91; first compound 2.53 µM): 0.833
relative viability (LOU-NH91; first compound 8 µM): 0.785
relative viability (NCI-H2009; first compound 0.08 µM): 0.955
relative viability (NCI-H2009; first compound 0.253 µM): 0.977
relative viability (NCI-H2009; first compound 0.8 µM): 0.861
relative viability (NCI-H2009; first compound 2.53 µM): 0.715
relative viability (NCI-H2009; first compound 8 µM): 0.763
relative viability (LK-2; first compound 0.08 µM): 0.851
relative viability (LK-2; first compound 0.253 µM): 0.842
relative viability (LK-2; first compound 0.8 µM): 0.731
relative viability (LK-2; first compound 2.53 µM): 0.78
relative viability (LK-2; first compound 8 µM): 1.13
relative viability (NCI-H2347; first compound 0.08 µM): 0.834
relative viability (NCI-H2347; first compound 0.253 µM): 0.92
relative viability (NCI-H2347; first compound 0.8 µM): 0.771
relative viability (NCI-H2347; first compound 2.53 µM): 0.926
relative viability (NCI-H2347; first compound 8 µM): 0.978
relative viability (NCI-H1755; first compound 0.08 µM): 1.01
relative viability (NCI-H1755; first compound 0.253 µM): 1.01
relative viability (NCI-H1755; first compound 0.8 µM): 0.951
relative viability (NCI-H1755; first compound 2.53 µM): 1.03
relative viability (NCI-H1755; first compound 8 µM): 0.849
relative viability (NCI-H2405; first compound 0.08 µM): 1.02
relative viability (NCI-H2405; first compound 0.253 µM): 0.833
relative viability (NCI-H2405; first compound 0.8 µM): 0.984
relative viability (NCI-H2405; first compound 2.53 µM): 1.04
relative viability (NCI-H2405; first compound 8 µM): 0.79
relative viability (UMC-11; first compound 0.08 µM): 1.07
relative viability (UMC-11; first compound 0.253 µM): 0.957
relative viability (UMC-11; first compound 0.8 µM): 0.821
relative viability (UMC-11; first compound 2.53 µM): 0.934
relative viability (UMC-11; first compound 8 µM): 0.56
relative viability (HCC-78; first compound 0.08 µM): 0.484
relative viability (HCC-78; first compound 0.253 µM): 0.831
relative viability (HCC-78; first compound 0.8 µM): 0.54
relative viability (HCC-78; first compound 2.53 µM): 0.608
relative viability (HCC-78; first compound 8 µM): 0.889
